Measured values from US20230295182A1, “SPIRO DERIVATIVES OF ALPHA-D-GALACTOPYRANOSIDES” (Idorsia Pharmaceuticals Ltd, priority 2020, published 2023).

What was measured:
human Gal-3 (hGal-3) = human Gal-3 (hGal-3) (Homo sapiens (Human), UniProt P17931); assay: Competitive binding assay: biotinylated hGal-3 to microplate-adsorbed asialofetuin (ASF); details: Activity on hGal-3; binding to ASF-coated plates, 3 hours at 4° C.; mean values
Procedure, shortened: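 Biotinylated hGal-3 (300-1000 ng/mL) binding to plate-adsorbed asialofetuin, with DMSO-diluted compound added, incubated 3 h at 4 °C. After washing, bound protein detected with streptavidin-peroxidase (80 ng/mL, 1 h, 4 °C) and ABTS substrate, read spectrophotometrically. IC50 given as mean of several measurements.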

human Gal-1 (hGal-1) = human Gal-1 (hGal-1) (Homo sapiens, UniProt P09382); assay: Competitive binding assay: biotinylated hGal-1 to microplate-adsorbed asialofetuin (ASF); details: Activities on hGal-1; binding to ASF-coated plates, 3 hours at 4° C.; mean values; read-out: Gal-1 IC50
Sequence of human Gal-1 (hGal-1) (P09382 2-135 limits assumed): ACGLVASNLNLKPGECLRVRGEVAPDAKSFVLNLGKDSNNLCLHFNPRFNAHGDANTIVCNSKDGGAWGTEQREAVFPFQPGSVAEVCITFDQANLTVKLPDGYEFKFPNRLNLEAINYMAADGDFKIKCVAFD
Procedure, shortened: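 Plate-adsorbed asialofetuin is incubated 3 h at 4 °C with biotinylated hGal-1, optionally its all-serine-substituted cysteine variant, plus compound dilutions. ABTS color after 1 h streptavidin-peroxidase (80 ng/mL) at 4 °C reports binding. Reported IC50 is a mean across repeat runs.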

Sequence of human Gal-3 (hGal-3) (P17931 whole entry): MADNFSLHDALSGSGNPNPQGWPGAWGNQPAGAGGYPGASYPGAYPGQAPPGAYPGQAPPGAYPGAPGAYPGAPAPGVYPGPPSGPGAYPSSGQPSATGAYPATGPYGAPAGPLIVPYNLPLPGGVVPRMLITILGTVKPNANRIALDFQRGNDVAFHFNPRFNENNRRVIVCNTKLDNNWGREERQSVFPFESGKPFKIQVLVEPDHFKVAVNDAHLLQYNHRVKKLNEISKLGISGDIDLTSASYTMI

Structure (SMILES) | IC50 (human Gal-3 (hGal-3)) [nM] | IC50 (human Gal-1 (hGal-1)) [nM]
CO[C@@H]1[C@@H](n2cc(-c3ccc(C)c(F)c3F)nn2)[C@@H](O)[C@@H](CO)O[C@@H]1CN1CC2(CCOCC2)OC1=O [Example 3.03, 3-(((2R,3R,4S,5R,6R)-4-(4-(2,3-difluoro-4-methylphenyl)-1H-1,2,3-triazol-1-yl)-5-hydroxy-6-(hydroxymethyl)-3-methoxytetrahydro-2H-pyran-2-yl)methyl)-1,8-dioxa-3-azaspiro[4.5]decan-2-one] | 90 | 2300
COC(=O)CO[C@@H]1[C@@H](n2cc(-c3cc(F)c(F)c(F)c3)nn2)[C@@H](O)[C@@H](CO)O[C@@H]1CC1=NOC2(CCCCC2)C1 [Example 1.68, methyl 2-(((2R,3R,4S,5R,6R)-2-((1-oxa-2-azaspiro[4.5]dec-2-en-3-yl)methyl)-5-hydroxy-6-(hydroxymethyl)-4-(4-(3,4,5-trifluorophenyl)-1H-1,2,3-triazol-1-yl)tetrahydro-2H-pyran-3-yl)oxy)acetate] | 220 | 3700
CCOC(=O)N[C@H]1CC[C@]2(CC1)CC(C[C@H]1O[C@H](CO)[C@H](O)[C@H](n3cc(-c4ccc(C)c(F)c4F)nn3)[C@H]1OC)=NO2 [Example 2.09, ethyl ((5r,8R)-3-(((2R,3R,4S,5R,6R)-4-(4-(2,3-difluoro-4-methylphenyl)-1H-1,2,3-triazol-1-yl)-5-hydroxy-6-(hydroxymethyl)-3-methoxytetrahydro-2H-pyran-2-yl)methyl)-1-oxa-2-azaspiro[4.5]dec-2-en-8-yl)carbamate] | 17 | 640
CO[C@@H]1[C@@H](n2cc(-c3cc(F)c(F)c(F)c3)nn2)[C@@H](O)[C@@H](CO)O[C@@H]1CC1=NOC2(CCC(C(C)C)CC2)C1 (stereo partly drawn) [Example 1.25, (2R,3R,4S,5R,6R)-2-(hydroxymethyl)-6-((8-isopropyl-1-oxa-2-azaspiro[4.5]dec-2-en-3-yl)methyl)-5-methoxy-4-(4-(3,4,5-trifluorophenyl)-1H-1,2,3-triazol-1-yl)tetrahydro-2H-pyran-3-ol] | 1300 | 11100
CO[C@@H]1[C@@H](n2cc(-c3ccc(Cl)c(F)c3F)nn2)[C@@H](O)[C@@H](CO)O[C@@H]1CC1=NOC2(CCC(C(C)(C)O)CC2)C1 (stereo partly drawn) [Example 1.55, (2R,3R,4S,5R,6R)-4-(4-(4-chloro-2,3-difluorophenyl)-1H-1,2,3-triazol-1-yl)-2-(hydroxymethyl)-6-((8-(2-hydroxypropan-2-yl)-1-oxa-2-azaspiro[4.5]dec-2-en-3-yl)methyl)-5-methoxytetrahydro-2H-pyran-3-ol] | 400 | 4400
CO[C@@H]1[C@@H](n2cc(-c3ccc(C)c(F)c3F)nn2)[C@@H](O)[C@@H](CO)O[C@@H]1CC1=NO[C@]2(CC[C@H](NC(=O)OC(C)(C)C)CC2)C1 [Example 1.43, tert-butyl ((5r,8R)-3-(((2R,3R,4S,5R,6R)-4-(4-(2,3-difluoro-4-methylphenyl)-1H-1,2,3-triazol-1-yl)-5-hydroxy-6-(hydroxymethyl)-3-methoxytetrahydro-2H-pyran-2-yl)methyl)-1-oxa-2-azaspiro[4.5]dec-2-en-8-yl)carbamate] | 15 | 1240
O=C(O)CO[C@@H]1[C@@H](n2cc(-c3cc(F)c(F)c(F)c3)nn2)[C@@H](O)[C@@H](CO)O[C@@H]1CC1=NOC2(CCCCC2)C1 [Example 2.26, 2-(((2R,3R,4S,5R,6R)-2-((1-oxa-2-azaspiro[4.5]dec-2-en-3-yl)methyl)-5-hydroxy-6-(hydroxymethyl)-4-(4-(3,4,5-trifluorophenyl)-1H-1,2,3-triazol-1-yl)tetrahydro-2H-pyran-3-yl)oxy)acetic acid] | 90 | 3500
NC(=O)O[C@@H]1[C@@H](n2cc(-c3cc(F)c(F)c(F)c3)nn2)[C@@H](O)[C@@H](CO)O[C@@H]1CC1=NOC2(CCCCC2)C1 [Example 1.73, (2R,3R,4S,5R,6R)-2-((1-oxa-2-azaspiro[4.5]dec-2-en-3-yl)methyl)-5-hydroxy-6-(hydroxymethyl)-4-(4-(3,4,5-trifluorophenyl)-1H-1,2,3-triazol-1-yl)tetrahydro-2H-pyran-3-yl carbamate] | 110 | 6500
CO[C@@H]1[C@@H](n2cc(-c3ccc(Cl)c(F)c3F)nn2)[C@@H](O)[C@@H](CO)O[C@@H]1CC1=NOC2(CCCCC2)C1 [Example 1.22, (2R,3R,4S,5R,6R)-6-((1-oxa-2-azaspiro[4.5]dec-2-en-3-yl)methyl)-4-(4-(4-chloro-2,3-difluorophenyl)-1H-1,2,3-triazol-1-yl)-2-(hydroxymethyl)-5-methoxytetrahydro-2H-pyran-3-ol] | 76 | 3700
CO[C@@H]1[C@@H](n2cc(-c3ccc(C)c(F)c3F)nn2)[C@@H](O)[C@@H](CO)O[C@@H]1CC1=NOC2(CCC(=O)N(C)CC2)C1 (mixture of isomers) [Example 1.77, (RS)-3-(((2R,3R,4S,5R,6R)-4-(4-(2,3-difluoro-4-methylphenyl)-1H-1,2,3-triazol-1-yl)-5-hydroxy-6-(hydroxymethyl)-3-methoxytetrahydro-2H-pyran-2-yl)methyl)-8-methyl-1-oxa-2,8-diazaspiro[4.6]undec-2-en-9-one] | 100 | 4800
CO[C@@H]1[C@@H](n2cc(-c3cc(F)c(F)c(F)c3)nn2)[C@@H](O)[C@@H](CO)O[C@@H]1CN1CC2(CCN(C(=O)OC(C)(C)C)CC2)OC1=O [Example 3.01, tert-butyl 3-(((2R,3R,4S,5R,6R)-5-hydroxy-6-(hydroxymethyl)-3-methoxy-4-(4-(3,4,5-trifluorophenyl)-1H-1,2,3-triazol-1-yl)tetrahydro-2H-pyran-2-yl)methyl)-2-oxo-1-oxa-3,8-diazaspiro[4.5]decane-8-carboxylate] | 120 | 2700
CO[C@@H]1[C@@H](n2cc(-c3cc(F)c(F)c(F)c3)nn2)[C@@H](O)[C@@H](CO)O[C@@H]1CC1=NOC2(CCC(N3CCOCC3)CC2)C1 (stereo partly drawn) [Example 2.19, (2R,3R,4S,5R,6R)-2-(hydroxymethyl)-5-methoxy-6-((8-morpholino-1-oxa-2-azaspiro[4.5]dec-2-en-3-yl)methyl)-4-(4-(3,4,5-trifluorophenyl)-1H-1,2,3-triazol-1-yl)tetrahydro-2H-pyran-3-ol] | 390 | 1700
CO[C@@H]1[C@@H](n2cc(-c3ccc(Cl)c(F)c3F)nn2)[C@@H](O)[C@@H](CO)O[C@@H]1CC1=NO[C@]2(CC[C@H](C(C)(C)O)CC2)C1 [Example 1.64, (2R,3R,4S,5R,6R)-4-(4-(4-chloro-2,3-difluorophenyl)-1H-1,2,3-triazol-1-yl)-2-(hydroxymethyl)-6-(((5r,8R)-8-(2-hydroxypropan-2-yl)-1-oxa-2-azaspiro[4.5]dec-2-en-3-yl)methyl)-5-methoxytetrahydro-2H-pyran-3-ol] | 490 | 2400
CO[C@@H]1[C@@H](n2cc(-c3ccc(F)c(F)c3F)nn2)[C@@H](O)[C@@H](CO)O[C@@H]1CC1=NOC2(CCC(C#N)CC2)C1 (stereo partly drawn) [Example 1.50, 3-(((2R,3R,4S,5R,6R)-5-hydroxy-6-(hydroxymethyl)-3-methoxy-4-(4-(2,3,4-trifluorophenyl)-1H-1,2,3-triazol-1-yl)tetrahydro-2H-pyran-2-yl)methyl)-1-oxa-2-azaspiro[4.5]dec-2-ene-8-carbonitrile] | 160 | 570
CO[C@@H]1[C@@H](n2cc(-c3cc(F)c(F)c(F)c3)nn2)[C@@H](O)[C@@H](CO)O[C@@H]1CC1=NOC2(CCC(F)(F)CC2)C1 [Example 1.24, (2R,3R,4S,5R,6R)-6-((8,8-difluoro-1-oxa-2-azaspiro[4.5]dec-2-en-3-yl)methyl)-2-(hydroxymethyl)-5-methoxy-4-(4-(3,4,5-trifluorophenyl)-1H-1,2,3-triazol-1-yl)tetrahydro-2H-pyran-3-ol] | 450 | 4900
CO[C@@H]1[C@@H](n2cc(-c3cc(F)c(F)c(F)c3)nn2)[C@@H](O)[C@@H](CO)O[C@@H]1CC1=NOC2(CCC2)C1 [Example 1.10, (2R,3R,4S,5R,6R)-6-((5-oxa-6-azaspiro[3.4]oct-6-en-7-yl)methyl)-2-(hydroxymethyl)-5-methoxy-4-(4-(3,4,5-trifluorophenyl)-1H-1,2,3-triazol-1-yl)tetrahydro-2H-pyran-3-ol] | 620 | 2200
CO[C@@H]1[C@@H](n2cc(-c3cc(F)c(F)c(F)c3)nn2)[C@@H](O)[C@@H](CO)O[C@@H]1CC1=NOC2(CCN(C(C)=O)CC2)C1 [Example 2.30, 1-(3-(((2R,3R,4S,5R,6R)-5-hydroxy-6-(hydroxymethyl)-3-methoxy-4-(4-(3,4,5-trifluorophenyl)-1H-1,2,3-triazol-1-yl)tetrahydro-2H-pyran-2-yl)methyl)-1-oxa-2,8-diazaspiro[4.5]dec-2-en-8-yl)ethan-1-one] | 280 | 2800
CO[C@@H]1[C@@H](n2cc(-c3cc(F)c(F)c(F)c3)nn2)[C@@H](O)[C@@H](CO)O[C@@H]1CC1=NOC2(CCC(C)(C)C2)C1 (stereo partly drawn) [Example 1.32, (2R,3R,4S,5R,6R)-6-((7,7-dimethyl-1-oxa-2-azaspiro[4.4]non-2-en-3yl)methyl)-2-(hydroxymethyl)-5-methoxy-4-(4-(3,4,5-trifluorophenyl)-1H-1,2,3-triazol-1-yl)tetrahydro-2H-pyran-3-ol] | 340 | 3400
